Common to all, as to experiment: Ca2+ mobilization, GFP-apoaequorin luminescence in CHO-K1 with Gα-16
(Calcium flux is commonly read through the fluorescence of an indicator in the cells.)

Assay [1] has as its target T1, P. dumerilii Octopamine α (Platynereis dumerilii, UniProt A0A1J0F445).
T1 construct: full-length in pcDNA3.1(+), expressed in CHO-K1 with Gα-16 and GFP-apoaequorin
T1 sequence (A0A1J0F445 1-603): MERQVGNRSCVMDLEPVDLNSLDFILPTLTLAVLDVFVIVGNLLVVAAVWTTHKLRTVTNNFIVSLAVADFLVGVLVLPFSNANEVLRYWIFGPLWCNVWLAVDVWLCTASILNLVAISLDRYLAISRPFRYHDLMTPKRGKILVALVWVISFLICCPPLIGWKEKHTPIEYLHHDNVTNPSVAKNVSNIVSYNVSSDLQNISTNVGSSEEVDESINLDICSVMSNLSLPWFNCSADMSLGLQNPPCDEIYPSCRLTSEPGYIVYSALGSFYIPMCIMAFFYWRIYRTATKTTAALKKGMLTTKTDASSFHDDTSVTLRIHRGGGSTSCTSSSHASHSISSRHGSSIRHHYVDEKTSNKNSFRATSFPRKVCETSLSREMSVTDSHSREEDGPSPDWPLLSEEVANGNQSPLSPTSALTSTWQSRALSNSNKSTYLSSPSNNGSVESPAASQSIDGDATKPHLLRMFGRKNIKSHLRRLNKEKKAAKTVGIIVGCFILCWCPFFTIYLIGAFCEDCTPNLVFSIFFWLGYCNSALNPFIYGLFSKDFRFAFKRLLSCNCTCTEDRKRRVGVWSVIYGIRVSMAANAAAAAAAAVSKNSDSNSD
In kind it is cell-based. From the text:
Ca2+ mobilization, GFP-apoaequorin luminescence in CHO-K1 with Gα-16 on P. dumerilii Octopamine α

Assay [2] concerns T2, S. kowalevskii Octopamine α.
T2 construct: gene Octopamine alpha receptor; full-length in pcDNA3.1(+), expressed in CHO-K1 with Gα-16 and GFP-apoaequorin
The format is cell-based, Saccoglossus kowalevskii. As to conditions: agonist, HBSS, 1.8 mM Ca2+, 10 mM glucose. From the text: Ca2+ mobilization, GFP-apoaequorin luminescence in CHO-K1 with Gα-16 on S. kowalevskii Octopamine α

Assay [3] has as its target T3, P. dumerilii Tyramine-2 (Platynereis dumerilii, UniProt A0A1J0F4P1).
T3 construct: full-length in pcDNA3.1(+), expressed in CHO-K1 with Gα-16 and GFP-apoaequorin
T3 sequence (A0A1J0F4P1 1-460): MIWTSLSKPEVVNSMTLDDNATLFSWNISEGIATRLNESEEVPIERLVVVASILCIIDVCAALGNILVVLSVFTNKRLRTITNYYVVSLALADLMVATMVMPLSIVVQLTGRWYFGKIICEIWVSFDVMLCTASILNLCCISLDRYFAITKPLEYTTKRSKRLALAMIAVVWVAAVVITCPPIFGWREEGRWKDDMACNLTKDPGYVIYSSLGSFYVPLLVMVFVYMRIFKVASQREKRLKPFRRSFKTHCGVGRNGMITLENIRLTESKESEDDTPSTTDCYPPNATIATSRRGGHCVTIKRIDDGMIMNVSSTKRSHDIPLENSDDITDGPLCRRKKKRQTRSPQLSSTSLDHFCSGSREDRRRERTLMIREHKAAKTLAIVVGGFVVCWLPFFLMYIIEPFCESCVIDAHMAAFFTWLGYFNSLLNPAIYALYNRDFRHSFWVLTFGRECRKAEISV
In kind it is cell-based. From the text:
Ca2+ mobilization, GFP-apoaequorin luminescence in CHO-K1 with Gα-16 on P. dumerilii Tyramine-2

Assay [4] addresses T4, S. kowalevskii Tyramine-2B (Saccoglossus kowalevskii, UniProt A0ABM0LZ08).
T4 construct: gene LOC102801068; full-length in pcDNA3.1(+), expressed in CHO-K1 with Gα-16 and GFP-apoaequorin
T4 sequence (A0ABM0LZ08 1-489): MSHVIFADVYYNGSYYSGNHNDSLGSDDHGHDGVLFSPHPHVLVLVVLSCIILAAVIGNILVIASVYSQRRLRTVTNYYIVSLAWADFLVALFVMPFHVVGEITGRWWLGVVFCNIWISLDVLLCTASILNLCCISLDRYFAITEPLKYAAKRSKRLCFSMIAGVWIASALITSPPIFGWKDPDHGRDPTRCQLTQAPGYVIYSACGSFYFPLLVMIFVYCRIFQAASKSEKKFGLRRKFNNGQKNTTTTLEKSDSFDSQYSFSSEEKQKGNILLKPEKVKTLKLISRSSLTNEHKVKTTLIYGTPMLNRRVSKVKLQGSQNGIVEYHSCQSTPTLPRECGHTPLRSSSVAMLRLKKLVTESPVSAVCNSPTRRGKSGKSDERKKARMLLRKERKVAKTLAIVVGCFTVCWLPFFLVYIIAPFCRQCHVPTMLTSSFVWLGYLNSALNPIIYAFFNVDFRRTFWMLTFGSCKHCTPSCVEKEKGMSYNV
The format is cell-based. From the text: Ca2+ mobilization, GFP-apoaequorin luminescence in CHO-K1 with Gα-16 on S. kowalevskii Tyramine-2B

The target of assay [5] is T5, S. kowalevskii Tyramine-1 (Saccoglossus kowalevskii, UniProt A0ABM0H1U8).
T5 construct: gene LOC100368763; full-length in pcDNA3.1(+), expressed in CHO-K1 with Gα-16 and GFP-apoaequorin
T5 sequence (A0ABM0H1U8 1-430): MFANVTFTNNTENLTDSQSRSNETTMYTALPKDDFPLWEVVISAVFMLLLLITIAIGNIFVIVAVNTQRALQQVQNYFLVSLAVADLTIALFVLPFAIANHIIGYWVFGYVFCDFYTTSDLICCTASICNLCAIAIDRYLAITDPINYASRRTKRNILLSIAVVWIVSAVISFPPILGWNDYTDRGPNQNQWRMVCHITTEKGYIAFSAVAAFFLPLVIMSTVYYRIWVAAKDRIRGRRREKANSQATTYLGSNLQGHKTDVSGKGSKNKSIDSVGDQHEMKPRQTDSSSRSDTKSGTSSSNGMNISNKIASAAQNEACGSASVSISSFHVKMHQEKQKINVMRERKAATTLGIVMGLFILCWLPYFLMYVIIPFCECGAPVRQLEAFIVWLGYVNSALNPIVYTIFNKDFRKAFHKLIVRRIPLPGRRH
In kind it is cell-based. From the text:
Ca2+ mobilization, GFP-apoaequorin luminescence in CHO-K1 with Gα-16 on S. kowalevskii Tyramine-1

Assay [6] addresses T6, S. kowalevskii Tyramine-2A (Saccoglossus kowalevskii, UniProt A0ABM0GNT8).
T6 construct: gene LOC100366600; full-length in pcDNA3.1(+), expressed in CHO-K1 with Gα-16 and GFP-apoaequorin
T6 sequence (A0ABM0GNT8 1-458): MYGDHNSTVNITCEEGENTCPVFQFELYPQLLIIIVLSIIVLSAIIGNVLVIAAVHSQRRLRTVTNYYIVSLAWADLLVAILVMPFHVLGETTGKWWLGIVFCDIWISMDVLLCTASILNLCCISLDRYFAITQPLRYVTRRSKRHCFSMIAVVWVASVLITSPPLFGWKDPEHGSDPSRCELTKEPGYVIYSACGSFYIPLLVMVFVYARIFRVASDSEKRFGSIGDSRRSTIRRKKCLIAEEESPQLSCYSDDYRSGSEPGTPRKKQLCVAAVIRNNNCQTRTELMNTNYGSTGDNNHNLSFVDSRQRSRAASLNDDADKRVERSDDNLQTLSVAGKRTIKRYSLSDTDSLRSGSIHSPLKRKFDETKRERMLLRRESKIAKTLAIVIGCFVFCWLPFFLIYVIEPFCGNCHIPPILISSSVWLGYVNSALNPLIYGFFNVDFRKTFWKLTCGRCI
The format is cell-based. From the text: Ca2+ mobilization, GFP-apoaequorin luminescence in CHO-K1 with Gα-16 on S. kowalevskii Tyramine-2A

Assay [7] has as its target T7, P. dumerilii Tyramine-1 (Platynereis dumerilii, UniProt A0A0K0PUV5).
T7 construct: full-length in pcDNA3.1(+), expressed in CHO-K1 with Gα-16 and GFP-apoaequorin
T7 sequence (A0A0K0PUV5 1-428): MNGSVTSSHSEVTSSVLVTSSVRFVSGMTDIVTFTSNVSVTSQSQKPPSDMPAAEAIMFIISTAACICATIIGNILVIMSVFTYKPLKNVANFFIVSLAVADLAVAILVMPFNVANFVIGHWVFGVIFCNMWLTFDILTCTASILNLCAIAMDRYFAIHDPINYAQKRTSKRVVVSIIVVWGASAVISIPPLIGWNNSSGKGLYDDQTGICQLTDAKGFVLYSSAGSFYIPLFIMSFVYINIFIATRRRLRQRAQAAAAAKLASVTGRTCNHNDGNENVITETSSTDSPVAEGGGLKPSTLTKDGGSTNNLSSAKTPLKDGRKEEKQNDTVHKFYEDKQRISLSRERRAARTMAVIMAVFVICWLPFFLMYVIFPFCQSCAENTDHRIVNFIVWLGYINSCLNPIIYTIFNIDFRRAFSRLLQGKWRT
The format is cell-based. From the text: Ca2+ mobilization, GFP-apoaequorin luminescence in CHO-K1 with Gα-16 on P. dumerilii Tyramine-1

Like-named read-outs stand apart in the source and are kept apart here.

For the compound `Clc1cccc(Cl)c1NC1=NCCN1` [clonidine], the values for the EC50 in assay [1] (read-out: Clonidine) and in assay [2] (read-out: Clonidine) were 140 nM and 160 nM, respectively.
As for `NC[C@H](O)c1ccc(O)cc1` [octopamine], the EC50 in assay [1] (read-out: Octopamine) worked out at 260 nM; in assay [2] (read-out: Octopamine) it was 690 nM.
For the compound `NCCc1ccc(O)cc1` [tyramine], the EC50 came to 7 nM in assay [3]; 5.9 nM in assay [4]; 86000 nM in assay [5]; 1 nM in assay [6]; 11 nM in assay [7].
For the compound `COC(=O)[C@@H]1[C@H]2C[C@H]3c4[nH]c5ccccc5c4CCN3C[C@@H]2CC[C@@H]1O` [yohimbine], the IC50 in assay [1] (read-out: Yohimbine) turned out to be 9 nM.

(Values after publication PMC5282848, “Ancient coexistence of norepinephrine, tyramine, and octopamine signaling in bilaterians” (BMC Biology, 2017).)
